In the experiment the target is T1, hDGAT-1 (Homo sapiens, UniProt O75907).
T1 construct: host or cells: Sf9 insect cells (baculovirus); microsomal fraction
T1 sequence (O75907 1-488): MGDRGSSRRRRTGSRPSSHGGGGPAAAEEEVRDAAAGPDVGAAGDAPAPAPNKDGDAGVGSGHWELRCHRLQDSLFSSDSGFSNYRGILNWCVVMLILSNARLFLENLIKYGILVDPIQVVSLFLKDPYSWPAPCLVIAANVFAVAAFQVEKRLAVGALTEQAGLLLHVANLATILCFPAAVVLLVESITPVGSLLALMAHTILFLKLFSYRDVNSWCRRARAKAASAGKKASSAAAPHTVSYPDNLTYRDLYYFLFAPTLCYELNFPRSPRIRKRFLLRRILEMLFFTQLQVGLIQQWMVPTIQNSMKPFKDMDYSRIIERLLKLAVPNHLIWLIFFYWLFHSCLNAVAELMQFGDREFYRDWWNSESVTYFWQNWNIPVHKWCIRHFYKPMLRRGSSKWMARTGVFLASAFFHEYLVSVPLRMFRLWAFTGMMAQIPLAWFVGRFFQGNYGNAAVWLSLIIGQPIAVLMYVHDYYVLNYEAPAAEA
In words: In-vitro DGAT-1 assay (14C oleoyl CoA, microsomes from Sf9 cells). The class given is biochemical. The settings on record: 1 μM compound; hDGAT-1 containing microsomes from Sf9 cells. The method, then:
In-Vitro Protocol for DGAT-1 Assay
Sf9 Culture and Treatment
Sf9 cells were grown in T25 flasks containing Graces's Insect media (Invitrogen, US) with 10% FBS (Hyclone, US) with antibiotic (100 units/mL penicillin, 100 μg/mL streptomycin sulphate, 0.25 μg/mL amphotericin B as Fungizone) grown in a 27° C. incubator.
hDGAT-10RF expression clone (RZPDo839C09146 in pDEST vector) was obtained from RZPD, Germany. hDGAT-1 bacmid DNA was obtained by transformation of the hDGAT expression clone into DH10Bac E. coli competent cells. Approximately 1 μg of hDGAT-1 bacmid DNA was infected into Sf9 cells with Cellfectin (Invitrogen, US) reagent. Following infection, Sf9 cells were incubated at 27° C. for 30 minutes. Five hours after infection, the media was replaced with growth media containing antibiotic (100 units/mL penicillin, 100 μg/mL streptomycin sulphate, 0.25 μg/mL amphotericin B as Fungizone) and incubated at 27° C. for 72 hours. The supernatant containing the virus was centrifuged at 1500 g for 5 minutes, passed through 0.22 μm filter, and subsequently stored at 4° C. The virus was further amplified three more times by re-infection of Sf9 cells and the viral titer was determined by plaque assay.
Preparation of DGAT-1 Microsomes from Sf9 Cells
Sf9 cells were seeded in spinner flasks on day 0 at a cell density of 1×10^6 and infected on day 1 with hDGAT-1 baculovirus at a multiplicity of infection (MOI) of 5 and a cell density of 2×10^6. On day 3 (or 66-72 hours), cells were harvested and centrifuged at 2500 g for 10 minutes. Pellet was resuspended in lysis buffer (100 mM sucrose, 50 mM KCl, 40 mM KH2PO4, 30 mM EDTA, pH 7.2) and passed through 21-gauge needle approximately 10 times. […] The supernatant was subjected to centrifugation at 35,000 rpm in a Beckman Ti-45 rotor at 4° C. for 1 hour. The resultant pellet containing the microsomes were resuspended overnight in 1 mL of lysis buffer and total protein concentration was estimated using Bradford Reagent (Sigma, US). Microsomes were aliquoted and stored at −80° C.
Measurement of DGAT-1 Activity
Frozen aliquots of hDGAT-1 containing microsomes were thawed (5-10 mg/mL total protein) on ice and diluted to a working stock of 1 mg/mL with DGAT Assay Buffer (DAB).
The assay was performed in duplicates in a reaction volume of 100 μL. […] Procedure:
The reaction was started by the addition of […] of 1 mg/mL of microsomes (iv) to the mixture and incubated at 37° C. for 10 minutes. […] The mixture was vortexed and the triglycerides formed were extracted into the organic heptane phase.
For the compound `CC(C)C(NC(=O)c1ncc(-c2ccc(NC(=O)Nc3cccc(C(F)(F)F)c3)cc2)o1)C(=O)O` (stereo not shown) [Example 2, 3-Methyl-2-(5-(4-(3-(3-(trifluoromethyl)phenyl)ureido)phenyl)oxazole-2-carboxamido)butanoic acid], the inhibition – broadly, the share of the control response that was lost under treatment – at 1 µM was in the range of 50 to 100%.
On the same count and under the same terms, under `Cc1ccc(NC(=O)Nc2ccc(-c3cnc(C(=O)NC(C(=O)O)C(C)C)o3)cc2)cc1C` (stereo not shown) [Example 6, 2-(5-(4-(3-(3,4-dimethylphenyl)ureido)phenyl)oxazole-2-carboxamido)-3-methylbutanoic acid] stands 50 to 100%.
For the compound `CC(C)C(NC(=O)c1ncc(-c2ccc(NC(=O)Nc3ccc(Cl)cc3Oc3ccccc3)cc2)o1)C(=O)O` (stereo not shown) [Example 8, 2-(5-(4-(3-(4-chloro-2-phenoxyphenyl)ureido)phenyl)oxazole-2-carboxamido)-3-methylbutanoic acid], the inhibition at 1 µM lay within 50 to 100%.
On to `CC(C)C(NC(=O)c1nc(-c2ccc(NC(=O)Nc3ccccc3Cl)cc2)cs1)C(=O)O` (stereo not shown) [Example 24, 2-(4-(4-(3-(2-Chlorophenyl)ureido)phenyl)thiazole-2-carboxamido)-3-methylbutanoic acid], for which the inhibition at 1 µM is 0 to 50%.
`CC(C)C(NC(=O)c1nc(-c2ccc(NC(=O)c3ccc(C(C)(C)C)cc3)cc2)cs1)C(=O)O` (stereo not shown) [Example 28, 2-(4-(4-(4-tert-butylbenzamido)phenyl)thiazole-2-carboxamido)-3-methylbutanoic acid] came in with an inhibition at 1 µM of 0 to 50%.
`CC(C)C(NC(=O)c1nc(-c2ccc(NC(=O)Nc3ccc(C(F)(F)F)cc3)cc2)cs1)C(=O)O` (stereo not shown) [Example 30, 3-methyl-2-(4-(4-(3-(4-(trifluoromethyl)phenyl)ureido)phenyl)thiazole-2-carboxamido)butanoic acid]: the inhibition at 1 µM lay within 0 to 50%.
As to `Cc1ccc(NC(=O)Nc2ccc(-c3csc(C(=O)NC(C(=O)O)C(C)C)n3)cc2)cc1C` (stereo not shown) [Example 32, 2-(4-(4-(3-(3,4-Dimethylphenyl)ureido)phenyl)thiazole-2-carboxamido)-3-methylbutanoic acid], the inhibition at 1 µM was in the range of 0 to 50%.
For `CC(C)C(NC(=O)c1nc(-c2ccc(NC(=O)Nc3ccc(Cl)cc3Oc3ccccc3)cc2)cs1)C(=O)O` (stereo not shown) [Example 34, 2-(4-(4-(3-(4-chloro-2-phenoxyphenyl)ureido)phenyl)thiazole-2-carboxamido)-3-methylbutanoic acid], the inhibition at 1 µM is 0 to 50%.
Consider `CC(C)C(NC(=O)c1nc(-c2ccc(NC(=O)c3ccc(-c4ccccc4)cc3)cc2)cs1)C(=O)O` (stereo not shown) [Example 36, 2-(4-(4-Biphenyl-4-ylcarboxamidophenyl)thiazole-2-carboxamido)-3-methylbutanoic acid], for which the “% inhibition of hDGAT-1 at 1 μM” value was “+ (>0% Inhibition ≦50)”.
Regarding `CCCCCc1ccc(C(=O)Nc2ccc(-c3csc(C(=O)NC(C(=O)O)C(C)C)n3)cc2)cc1` (stereo not shown) [Example 38, 3-Methyl-2-(4-(4-(4-pentylbenzamido)phenyl)thiazole-2-carboxamido) butanoic acid], the inhibition at 1 µM lay within 0 to 50%.
Still for that read-out and setting: under `CCCCCc1ccc(C(=O)Nc2ccc(-c3cnc(C(=O)N(C)C(C(=O)O)C(C)C)s3)cc2)cc1` (stereo not shown) [Example 40, 3-Methyl-2-(N-methyl-5-(4-(4-pentylbenzamido)phenyl)thiazole-2-carboxamido)butanoic acid] stands 50 to 100%.
With `CC(C)C(C(=O)O)N(C)C(=O)c1ncc(-c2ccc(NC(=O)c3ccc(-c4ccccc4)cc3)cc2)s1` (stereo not shown) [Example 42, 2-(5-(4-Biphenyl-4-ylcarboxamidophenyl)-N-methylthiazole-2-carboxamido)-3-methylbutanoic acid], the “% inhibition of hDGAT-1 at 1 μM” value is “++ (>50% Inhibition ≦100)”.
The compound `CC(C)C(C(=O)O)N(C)C(=O)c1ncc(-c2ccc(NC(=O)c3ccc(C(C)(C)C)cc3)cc2)s1` (stereo not shown) [Example 44, 2-(5-(4-(4-tert-Butylbenzamido)phenyl)-N-methylthiazole-2-carboxamido)-3-methylbutanoic acid] displayed an inhibition at 1 µM of 50 to 100%.
Regarding `CC(C)C(NC(=O)c1nc(-c2ccc(NS(=O)(=O)c3ccc(Cl)cc3Cl)cc2)cs1)C(=O)O` (stereo not shown) [Example 46, 2-(4-(4-(2,4-Dichlorophenylsulfonamido)phenyl)thiazole-2-carboxamido)-3-methylbutanoic acid], the inhibition at 1 µM lay in the range of 0 to 50%.
Regarding `CC(C)C(NC(=O)c1ncc(-c2ccc(NC(=O)c3ccc(-c4ccccc4)cc3)cc2)s1)C(=O)O` (stereo not shown) [Example 48, 2-(5-(4-biphenyl-4-ylcarboxamidophenyl)thiazole-2-carboxamido)-3-methylbutanoic acid], the “% inhibition of hDGAT-1 at 1 μM” value is recorded as “++ (>50% Inhibition ≦100)”.
`CC(C)C(NC(=O)c1ncc(-c2ccc(NC(=O)C3Cc4ccccc4C3)cc2)s1)C(=O)O` (stereo not shown) [Example 52, 2-(5-(4-(2,3-dihydro-1H-indene-2-carboxamido)phenyl)thiazole-2-carboxamido)-3-methylbutanoic acid] returned an inhibition at 1 µM of 50 to 100%.
The same measure, in the same setting: the figure for `CC(C)[C@H](NC(=O)c1ncc(-c2ccc(NC(=O)Nc3ccc4c(c3)CCC4)cc2)o1)C(=O)O` [Example 56, (S)-2-(5-(4-(3-(2,3-dihydro-1H-inden-5-yl)ureido)phenyl)oxazole-2-carboxamido)-3-methylbutanoic acid] is 50 to 100%; for `CC(C)[C@H](NC(=O)c1ncc(-c2ccc(NC(=O)Nc3ccc(Cl)cc3)cc2)o1)C(=O)O` [Example 58, (S)-2-(5-(4-(3-(4-chlorophenyl)ureido)phenyl)oxazole-2-carboxamido)-3-methylbutanoic acid] it is 50 to 100%.
The same measure, in the same setting: the figure for `CC(C)[C@H](NC(=O)c1ncc(-c2ccc(NC(=O)Nc3ccc(C(F)(F)F)cc3Cl)cc2)o1)C(=O)O` [Example 62, (S)-2-(5-(4-(3-(2-chloro-4-(trifluoromethyl)phenyl)ureido)phenyl)oxazole-2-carboxamido)-3-methylbutanoic acid] is 50 to 100%; for `CC(C)[C@H](NC(=O)c1ncc(-c2ccc(NC(=O)Nc3ccc(Cl)cc3F)cc2)o1)C(=O)O` [Example 64, (S)-2-(5-(4-(3-(4-chloro-2-fluorophenyl)ureido)phenyl)oxazole-2-carboxamido)-3-methylbutanoic acid] it is 50 to 100%.
The same measure, in the same setting: under `CC(C)[C@H](NC(=O)c1ncc(-c2ccc(NC(=O)Nc3ccc(Cl)cc3)cc2)s1)C(=O)O` [Example 68, (S)-2-(5-(4-(3-(4-chlorophenyl)ureido)phenyl)thiazole-2-carboxamido)-3-methylbutanoic acid] stands 50 to 100%; under `CC(C)[C@H](NC(=O)c1ncc(-c2ccc(NC(=O)Nc3cccc(Cl)c3)cc2)s1)C(=O)O` [Example 70, (S)-2-(5-(4-(3-(3-chlorophenyl)ureido)phenyl)thiazole-2-carboxamido)-3-methylbutanoic acid], 50 to 100%.
Take `CC(C)[C@H](NC(=O)c1ncc(-c2ccc(NC(=O)Nc3ccc(C(F)(F)F)cc3Cl)cc2)s1)C(=O)O` [Example 72, (S)-2-(5-(4-(3-(2-chloro-4-(trifluoromethyl)phenyl)ureido)phenyl)thiazole-2-carboxamido)-3-methylbutanoic acid]: the inhibition at 1 µM was 50 to 100%.
Same read-out and setting: the figure for `CC(C)[C@H](NC(=O)c1ncc(-c2ccc(NC(=O)Nc3ccc(Cl)cc3F)cc2)s1)C(=O)O` [Example 74, (S)-2-(5-(4-(3-(4-chloro-2-fluorophenyl)ureido)phenyl)thiazole-2-carboxamido)-3-methylbutanoic acid] is 50 to 100%.
The same measure, in the same setting: the figure for `CC(C)C(NC(=O)c1ncc(-c2ccc(NCc3ccc(F)cc3)cc2)s1)C(=O)O` (stereo not shown) [Example 91, 2-(5-(4-((4-Fluorobenzyl)amino)phenyl)thiazole-2-carboxamido)-3-methylbutanoic acid] is 0 to 50%.

The values are drawn from patent US8722901B2, “Carboxy oxazole or thiazole compounds as DGAT-1 inhibitors useful for the treatment of obesity” (Piramal Enterprises Limited, priority 2009, dated 2014).
